Results reported in patent publication US20260199289A1, “USE OF GLYCOGEN METABOLISM INHIBITORS FOR THE TREATMENT OF CANCER” (THE UNIVERSITY OF VERMONT AND STATE AGRICULTURAL COLLEGE, priority 2022, published 2026).
Entries after “also recorded” stand apart in the source; their conditions may differ. Like-named read-outs stand apart in the source and are kept apart here.

Tests used:
8505C cells [1] = experiment: SRB cell viability assay in ATC cells; type: cell-based, human
Description: In Vitro Cell Staining for Measuring Drug Efficacy—Thyroid cells (4.0×10^3) were seeded in 96 well plates with 100 μl CTM and allowed to adhere overnight. 100 μl of CTM containing 2× concentration of compound was overlayed in each well for 48 hours unless otherwise indicated. Each well then received 100 μl of 10% w/v cold trichloroacetic acid (Fisher) and incubated at 4° C. for 1 hour to fix the cells. Each well was rinsed 3× with DI H2O and stained with 100 μl 0.057% w/v sulforhodamine B (SRB, Sigma-Aldrich) for 30 minutes at room temperature in the dark. Wells were washed 4× with 300 μl 1% v/v acetic acid (Fisher), and remaining SRB stain was solubilized with 200 μl of 10 mM Tris buffer, pH 10.5 (Fisher). Absorbance was measured at 564 nm with a Synergy 2 Multi-Detection Microplate Reader (Agilent Technologies) and normalized to a vehicle control. Drug synergy was evaluated using the coefficient of drug interaction (CDI) formula: CDI=AB/(A×B)×100, where AB is the percent remaining cells of an indicated combination treatment, A is the average percent remaining cells of agent 1 alone, and B is the average percent remaining cells of agent 2 alone. […] Hao et al., “Effect of Lumiracoxib on Proliferation and Apoptosis of Human Nonsmall Cell Lung Cancer Cells In vitro,” Chin Med J (Engl) 121:602-607 (2008), which is hereby incorporated by reference in its entirety. […]

8505C tumors [2] = experiment: Staining of excised xenograft tumors (Ki-67, cleaved PARP, PAS glycogen); type: in vivo, mouse
8505C tumors [3] = experiment: 8505C xenograft tumor growth in nude mice; type: in vivo, mouse; settings: intraperitoneal, 50 mg/kg CP-91,149, 10 mg/kg sorafenib, 6-7 days a week
Description: Ethics statement and animal modeling—All animal procedures were approved by Institutional Animal Care and Use Committee (IACUC) at the University of Vermont. All animals were maintained in pathogen-free conditions and cared for in accordance with IACUC policies and certification. All surgeries were performed with isoflurane anesthesia. Temperature-controlled post-surgical monitoring was implemented to minimize suffering. Mice carrying anaplastic thyroid tumors were euthanized at designated time points for tumor collection. Signs of ulceration or a maximum individual tumor size of 2000 mm^3 were used as a protocol-enforced endpoint.
Mice were given food and water ad libitum. […] These doses were based on previous reports.

8505C cells [4] = experiment: RT-qPCR of glucose transporter expression; type: cell-based, human; settings: 50 μM CP-91,149, 24 hours
Text: RNA Extraction and Quantitative Real-Time PCR (qRT-PCR)—Total RNA was extracted using RNeasy Plus Kit (Qiagen) according to manufacturer's protocol. cDNA was synthesized using LunaScript® RT SuperMix Kit (New England Biolabs). Gene expression to validate RNA-seq analysis was quantified by qRT-PCR using Luna® Universal qPCR Master Mix (New England Biolabs) on a QuantStudio 3 real-time PCR system (Thermo Fisher Scientific). Fold change in gene expression compared to endogenous controls was calculated using the ddCT method.

[5] = mouse, in vivo
Description: Four-week-old athymic female nude mice (outbred homozygous nude Foxn1^nu/Foxn1^nu) were purchased from Jackson Laboratory (Bar Harbor, ME, USA) and were allowed to acclimatize for one week. Mice were given food and water ad libitum. Mice were anesthetized using 3% isoflurane delivered at 1.5 L/min, and tumors were established by subcutaneously injecting 1×10^6 8505C cells with a 26G needle in 100 μL of high concentration Matrigel (Corning Inc.) diluted 1:2 with base RPMI-1640 into each flank of 24 mice. One week later, mice were sorted into four treatment groups to achieve approximately equal body weights between mice. […] Pharmacological agents were dissolved in 100% DMSO and diluted daily in 30% DMSO, 40% PEG300, and 30% PBS and incubated at 55° C. for 10 minutes prior to vortexing to encourage complete solubilization. Tumor dimensions were measured with digital calipers, and the volumes were calculated by the following formula: (Π×a×b^2)/6, where a represents the largest diameter and b is the perpendicular diameter. The body weight of each animal was taken twice a week to measure toxicity. Mice were euthanized with carbon dioxide, and the tumors were harvested, fixed with formalin (Thermo Fisher Scientific), and stored at 4° C. prior to slide sectioning and immunofluorescence analysis.

8505C cells [6] = experiment: Immunoblot of apoptosis markers and Ki-67 in ATC cells; type: cell-based, human; settings: for apoptosis (PARP, caspase 9 and caspase 7 cleavage): six hours
Description: Briefly, proteins were isolated from whole cells in lysis buffer (20 mM Tris-HCl (pH 8), 137 mM NaCl, 10% glycerol, 1% Triton X-100, and 2 mM EDTA), quantified via Pierce™ BCA Protein Assay Kit (Thermo Fisher Scientific), and 25 μg protein/sample were resolved by polyacrylamide gel electrophoresis and immobilized onto nitrocellulose membranes. Membranes were blocked with 5% w/v BSA in TBS and 0.1% v/v Tween20 (Gold Bio, St Louis, MO, USA) for one hour at room temperature and incubated with primary antibodies overnight. Membranes were washed with TBS-0.1% Tween20 and secondary antibodies were applied for 1 hour at room temperature in 5% w/v BSA in TBS and 0.1% v/v Tween20. Immunoreactive proteins were detected by enhanced chemiluminescence (Thermo Scientific) on a ChemiDoc XRS+ (Bio-Rad Laboratories). Densitometry analysis was performed using ImageJ.

[7] = immunofluorescence of excised tumors

CN(C)C(=O)[C@H](O)[C@H](Cc1ccccc1)NC(=O)c1cc2cc(Cl)ccc2[nH]1 [CP-91,149, 5-chloro-N-[(2S,3R)-4-(dimethylamino)-3-hydroxy-4-oxo-1-phenylbutan-2-yl]-1H-indole-2-carboxamide]
cell viability with excess (2 mM) pyruvate (8505C cells [1]; 8505C cells, 48 hours): nearly identical to the pyruvate-depleted group | cell viability with excess (25 mM) glucose (8505C cells [1]; 8505C cells, 48 hours): rescued cell viability | cell viability with pyruvate depletion (8505C cells [1]; 8505C cells, 48 hours): able to compensate for loss of pyruvate | total cell viability (8505C cells [1]; ATC cells, 48 hours at 50 μM): modestly but significantly reduced total cell viability | cell viability, concentration and time dependence (SRB assay) (8505C cells [1]; various concentrations and time points): concentration-dependent decrease in cell viability; also recorded: decreases 8505C cell viability in a time-dependent manner | glycogen in tumor tissue (PAS staining) (8505C tumors [2]; excised tumors): significantly increased the level of glycogen in the tumor tissue | Ki-67 expression in xenograft tumors (8505C tumors [2]; [7]): reduction in Ki-67 expression | apoptosis (PARP cleavage) in xenograft tumors (8505C tumors [2]; [7]): induces apoptosis in vivo | apoptosis (PARP cleavage) in xenograft tumors (8505C tumors [2]; immunofluorescence of excised tumors, listed as CP): profoundly induced apoptosis | tumor growth (8505C tumors [3]): significantly impaired tumor growth in vivo; also recorded: severely blunted ATC tumor growth in vivo; also recorded: restrict ATC tumor growth | tumor growth (8505C tumors [3]; listed as CP): notably stunted; also recorded: equally as effective as sorafenib | SLC2A1 (GLUT1) expression (8505C cells [4]; 149): increases the expression | SLC2A3 (GLUT3) expression (8505C cells [4]; 149): increases the expression | SLC2A4 (GLUT4) expression (8505C cells [4]; 149): increases the expression | SLC2A1 (GLUT1) expression (8505C cells [4]; listed as CP): increase | SLC2A3 (GLUT3) expression (8505C cells [4]; listed as CP): increase | SLC2A4 (GLUT4) expression (8505C cells [4]; listed as CP): did not change | toxicity (body weight) [5]: low toxicity | proliferation marker Ki-67 expression (8505C cells [6]): inhibits proliferation | proliferation marker Ki-67 expression (8505C cells [6]; listed as CP): reduced expression of the proliferation marker Ki-67 | apoptosis (PARP, caspase 9 and caspase 7 cleavage) (8505C cells [6]): induced apoptosis in ATC cells | apoptosis (PARP, caspase 9 and caspase 7 cleavage) (8505C cells [6]; listed as CP): significant PARP, caspase 9, and caspase 7 cleavage | apoptosis (PARP, caspase 9 and caspase 7 cleavage) (8505C cells [6]; listed as CP-911,49): induces apoptosis
